Reference: patent publication US20220071932A1, “Compositions and Methods Against Stress-Induced Affective Disorders and Their Associated Symptoms” (The Trustees of Columbia University in the City of New York, priority 2019, published 2022)

How the values were obtained:
[1] = tested on: 129S6/SvEv mice; assay: Forced swim test (FST); immobility time; assay type: in vivo; settings: for p, Fisher's PLSD Saline vs. drug, FST Day 2 Immobility Time (sec): drug 1 week before stress; for Behavior: Depressive-like: dose 30 mg/kg
Experimental: The FST was administered as previously described (47). Briefly, mice were placed into clear plastic buckets 20 cm in diameter and 23 cm deep filled ⅔ of the way with 22° C. water. Mice were videotaped from the side for 6 min and were exposed to the swim test on 2 consecutive days Immobility time was scored by an experimenter blind to the experimental groups.

[2] = tested on: NR2A subunit of the NMDAR; assay: Western blotting of hippocampus after fear memory recall; assay type: in vivo, mice; settings: one week prior to CFC, (R,S)-ketamine 30 mg/kg, FENM 20 mg/kg, vs saline
Experimental: Samples from mouse hippocampus and prefrontal cortex were dissected, snap frozen, and stored at −80° C. Brain tissue was homogenized in RIPA buffer with protease inhibitor (Thermo Fisher Scientific, Waltham, Mass.; Roche, Basel, Switzerland) using a motorized pestle mixer (Argos Technologies, Vernon Hills, Ill.) and spun at 1000 g×14 minutes to remove cell debris. Protein concentration was determined using a Bradford protein assay (Bio-Rad, Hercules, Calif.). 4× Laemmli buffer and β-mercaptoethanol (Bio-Rad, Hercules, Calif.) was added to the samples, which were then boiled at 90° C. for five minutes. 50 μg of each sample was separated by SDS/PAGE, and proteins were transferred onto PVDF membrane (GE Healthcare Life Sciences, Marlborough, Mass.). Membranes were then blocked in 1×TBS with 0.1% Tween-20 and 5% BSA for 1 hr at RT. Incubation with primary antibodies was performed at 4° C. overnight (rabbit anti-β-tubulin, 1:10000, Abc am, Cambridge, UK, ab6046; rabbit anti-NR2A, 1:1000, Alomone Labs, Jerusalem, Israel, AGC-002; rabbit anti-NR2B, 1:600, Alomone Labs, Jerusalem, Israel, AGC-003; mouse anti-GluR1, 1:1000, Millipore Sigma, Burlington, Mass., MAB2263) in 1×TBS with 0.1% Tween-20 and 5% BSA. […]

[3] = tested on: 129S6/SvEv mice; assay: Anxiety-like behavior, summary of anxiety tests (OF, MB, EPM); assay type: in vivo; settings: (R,S)-ketamine 30 mg/kg, FENM 20 mg/kg, vs saline
Experimental: Testing was performed as previously described (47). Briefly, the maze is a plus-cross-shaped apparatus consisting of four arms, two open and two enclosed by walls, linked by a central platform at a height of 50 cm from the floor. Mice were individually placed in the center of the maze facing an open arm and were allowed to explore the maze for 5 min. The time spent in and the number of entries into the open arms was used as an anxiety index. Videos were scored using ANY-maze behavior tracking software (Stoelting, Wood Dale, Ill.).
The OF assay was administered as previously described (47). Briefly, motor activity was quantified in 4 Plexiglas open field boxes 43×43 cm^2 (MED Associates, Georgia, Vt.). Two sets of 16 pulse-modulated infrared photobeams on opposite walls 2.5-cm apart recorded x-y ambulatory movements. Activity chambers were computer interfaced for data sampling at 100-ms resolution. The computer defined grid lines that dividing center and surround regions, with the center square consisting of four lines 11 cm from the wall.
The MB assay was conducted in a clean cage (10.5 in×5.5 in) containing soft pliable Beta Chip bedding (Northeastern Products Corp, Warrensburg, N.Y.). The cage contained 16 marbles set up in 4 rows of 4 across. Mice were given 30 minutes to explore and bury. At the end of the assay, the percentage of marbles buried was calculated.

[4] = 30 mg/kg, drug 5 minutes after stress, FIG. 2F
[5] = Saline vs. (R,S)-ketamine (30 mg/kg), FIG. 8H

CNC1(c2ccccc2Cl)CCCCC1=O (racemic) [(R,S)-ketamine, reference compound]
p, Fisher's PLSD Saline vs. drug, FST Day 2 Immobility Time (sec) ([1]; 30 mg/kg, after ANOVA, FIG. 1G): 0.0007 | p, Fisher's PLSD Saline vs. drug, FST Day 2 Immobility Time (sec) ([1]; 30 mg/kg, after RMANOVA, FIG. 1F): 0.0003 | p, Fisher's PLSD Saline vs. drug, FST Day 2 Immobility Time Min 1 (s) [1, 4]: 0.7994 | p, Fisher's PLSD Saline vs. drug, FST Day 2 Immobility Time Min 2 (s) [1, 4]: 0.0125 | p, Fisher's PLSD Saline vs. drug, FST Day 2 Immobility Time Min 3 (s) [1, 4]: 0.8598 | p, Fisher's PLSD Saline vs. drug, FST Day 2 Immobility Time Min 4 (s) [1, 4]: 0.2874 | p, Fisher's PLSD Saline vs. drug, FST Day 2 Immobility Time Min 5 (s) [1, 4]: 0.6526 | p, Fisher's PLSD Saline vs. drug, FST Day 2 Immobility Time Min 6 (s) [1, 4]: 0.1586 | p, Fisher's PLSD Saline vs. drug, FST Day 2 Immobility Time (s) ([1]; 30 mg/kg, drug 5 minutes after stress, after ANOVA, FIG. 2G): 0.0466 | immobility time, day 2 of the FST ([1]; 5 min prior to CFC, (R,S)-ketamine 30 mg/kg, FENM 20 mg/kg, vs saline): significantly decreased immobility time | Behavior: Depressive-like ([1]; Antidepressant (5 min after stress)): ↓ | p, Immobility Time (s), FST Day 2, Saline vs. drug ([1]; Fisher's PLSD after ANOVA, drug 5 minutes after stress, FENM 20 mg/kg, (R,S)-ketamine 30 mg/kg, FIG. 3K): 0.6082 | p, Immobility Time (s), FST Day 2, Saline vs. drug ([1]; Fisher's PLSD after RMANOVA, drug 5 minutes after stress, FENM 20 mg/kg, (R,S)-ketamine 30 mg/kg, FIG. 3J): 0.8125 | Behavior: Depressive-like ([1]; Prophylactic (5 min before stress)): ↓ | Behavior: Depressive-like ([1]; Prophylactic (7 days before stress)): ↓ | Forced Swim Test Day 1, Immobility Time Min 1 (sec), p (Fisher's LSD) [1, 5]: 0.0026 | Forced Swim Test Day 1, Immobility Time Min 2 (sec), p (Fisher's LSD) [1, 5]: 0.2638 | Forced Swim Test Day 1, Immobility Time Min 3 (sec), p (Fisher's LSD) [1, 5]: 0.2171 | Forced Swim Test Day 1, Immobility Time Min 4 (sec), p (Fisher's LSD) [1, 5]: 0.6849 | Forced Swim Test Day 1, Immobility Time Min 5 (sec), p (Fisher's LSD) [1, 5]: 0.2114 | Forced Swim Test Day 1, Immobility Time Min 6 (sec), p (Fisher's LSD) [1, 5]: 0.0499 | Forced Swim Test Day 2, Immobility Time (sec), p (Fisher's LSD) ([1]; Saline vs. (R,S)-ketamine (30 mg/kg), after ANOVA, FIG. 8K): 0.0046 | Forced Swim Test Day 2, Immobility Time (sec), p (Fisher's LSD) ([1]; Saline vs. (R,S)-ketamine (30 mg/kg), after RMANOVA, FIG. 8J): 0.0036 | NR2A expression in the hippocampus [2]: comparable | behavior in all anxiety tests, with the exception of the time spent in the center of the OF ([3]; 5 min after context re-exposure 1): did not alter behavior | behavior in all anxiety tests ([3]; 5 minutes prior to context re-exposure 1 (24 h after CFC)): did not alter behavior
